Assay results: patent publication US20210246115A1 (Bioimics AB, priority 2017, published 2021)
In brackets after ≈: the same amount, converted by molar mass. Like-named read-outs stand apart in the source and are kept apart here.

Legend:
[1] = test system: Staphylococcus aureus subsp. aureus (ATCC29213); test: MIC, broth microdilution (CLSI), Staphylococcus aureus ATCC29213; type: cell-based; conditions: Staphylococcus aureus, read-out: S. aureus ATCC 29213 MIC
[2] = test system: E. coli JW5503 (efflux defective); test: MIC, E. coli JW5503 (efflux defective); type: cell-based; conditions: Escherichia coli, read-out: E. coli JW5503 (efflux defective) MIC
[3] = test system: P. aeruginosa NTUH974 (MDR); test: MIC, P. aeruginosa NTUH974 (MDR); type: cell-based; conditions: Pseudomonas aeruginosa; Table XIV B. Gram-negative bacteria; read-out: P. aeruginosa NTUH974 (MDR) MIC
[4] = test system: Pseudomonas aeruginosa (ATCC27853); test: MIC, broth microdilution (CLSI), Pseudomonas aeruginosa; type: cell-based; conditions: ATCC27853, Table XIV B. Gram-negative bacteria, read-out: P. aeruginosa ATCC 27853 MIC
S. pneumoniae ATCC 49619 = test: MIC, S. pneumoniae ATCC 49619; type: cell-based; conditions: Streptococcus pneumoniae, ATCC49619; Table XIV A. Gram-positive bacteria
[5] = test system: Escherichia coli (ATCC25922); test: MIC, broth microdilution (CLSI), Escherichia coli; conditions: Escherichia coli
Protocol: Initial minimal inhibitory concentration (MIC) tests were made on two bacterial strains: • Escherichia coli (ATCC25922) • Staphylococcus aureus (ATCC25923).
MIC values were determined using the standard broth microdilution procedure based on the guidelines by the Clinical and Laboratory Standards Institute (CLSI). Briefly, the compounds were dissolved in DMSO to 10 mM. They were diluted in cation-adjusted Mueller-Hinton broth (CAMHB) to four times the highest concentration tested. A serial two-fold dilution in CAMHB was done in microdilution plates. The inoculum of bacterial strain to be tested was prepared by making a suspension of colonies from an 18 to 24 hours old plate in CAMHB. The inoculum was diluted so that, after inoculation, each well contained approximately 5×10^5 CFU/mL. To a volume of 50 μl compound in CA 3 an equal volume of inoculum was added. The tray was sealed in a plastic bag and incubated at 35° C. for 16 to 20 hours. To aid in the detection of growth the dye resazurin was added to a final concentration 0.001% and incubated at room temperature for 1 h. Reduction of resazurin, and therefore bacterial growth, was seen as a change from blue to pink.

K. pneumoniae ATCC 43816 = test: MIC, K. pneumoniae ATCC 43816; type: cell-based; conditions: Klebsiella pneumoniae, ATCC43816; Table XIV B. Gram-negative bacteria
[6] = test system: S. aureus MRSA ATCC 33591; test: MIC, S. aureus MRSA ATCC 33591; type: cell-based; conditions: Staphylococcus aureus; Table XIV A. Gram-positive bacteria; read-out: S. aureus MRSA ATCC 33591 MIC
A. baumannii ATCC 17978 = test: MIC, A. baumannii ATCC 17978; type: cell-based; conditions: Acinetobacter baumannii, ATCC17978; Table XIV B. Gram-negative bacteria
[7] = test system: N. gonorrhoeae ATCC 700825; test: MIC, N. gonorrhoeae ATCC 700825; type: cell-based; conditions: Neisseria gonorrhoeae, ATCC700825; Table XIV B. Gram-negative bacteria
[8] = test system: S. aureus USA300 MRSA BAA-1717; test: MIC, S. aureus USA300 MRSA BAA-1717; type: cell-based; conditions: Staphylococcus aureus; Table XIV A. Gram-positive bacteria; read-out: S. aureus USA300 MRSA BAA-1717 MIC
M. phlei ATCC 11758 = test: MIC, M. phlei ATCC 11758; type: cell-based; conditions: Mycolicibacterium phlei, ATCC11758; Table XIV A. Gram-positive bacteria
[9] = test system: Enterococcus faecalis (ATCC29212); test: MIC, broth microdilution (CLSI), Enterococcus faecalis; type: cell-based; conditions: ATCC29212, Table XIV A. Gram-positive bacteria, read-out: E. faecalis ATCC 29212 MIC
M. fortuitum ATCC 110 = test: MIC, M. fortuitum ATCC 110; type: cell-based; conditions: Mycolicibacterium fortuitum, ATCC110; Table XIV A. Gram-positive bacteria
[10] = test system: E. coli RNase P RNA, M1 RNA; test: Inhibition of bacterial RNase P activity, IC50 determination (cleavage of pATSerUG by M1 RNA); type: biochemical; conditions: NI: No inhibition
H. influenzae ATCC 49247 = test: MIC, H. influenzae ATCC 49247; type: cell-based; conditions: Haemophilus influenzae, ATCC49247; Table XIV B. Gram-negative bacteria
H. pylori ATCC 43504 = test: MIC, H. pylori ATCC 43504; type: cell-based; conditions: Helicobacter pylori, ATCC43504; Table XIV B. Gram-negative bacteria
E. faecium ATCC 700221 = test: MIC, E. faecium ATCC 700221; type: cell-based; conditions: Enterococcus faecium, ATCC700221; Table XIV A. Gram-positive bacteria; read-out: E. faecium ATCC 700221 MIC
[11] = ATCC29213, Table XIV A. Gram-positive bacteria
[12] = ATCC25922, read-out: E. coli ATCC 25922 MIC, Table XIII
[13] = ATCC25922, read-out: E. coli ATCC 25922 MIC, Table XIV B. Gram-negative bacteria

Compound `Cc1cccc(-c2ccc3c(c2)c(CCCNCC(O)CN)cn3C2CCCCC2)c1` (stereo not shown) [Compound 385, 1-amino-3-((3-(1-cyclohexyl-5-(m-tolyl)-1H-indol-3-yl)propyl)amino) propan-2-ol] has an MIC ([1]; ATCC29213, Table XIII) of 4 µg/mL (≈ 9.53 µM), an MIC [1, 11] of 2 µg/mL (≈ 4.77 µM) and an MIC [2] of 2 µg/mL (≈ 4.77 µM). It also gave an MIC [3] of 4 µg/mL (≈ 9.53 µM), an MIC [4] of 4 µg/mL (≈ 9.53 µM) and an MIC (S. pneumoniae ATCC 49619) of 8 µg/mL (≈ 19.1 µM). For the same compound, the MIC [5, 12] was 4 µg/mL (≈ 9.53 µM), the MIC [5, 13] was 4 µg/mL (≈ 9.53 µM) and the MIC (K. pneumoniae ATCC 43816) was 4 µg/mL (≈ 9.53 µM). For the same compound, the MIC [6] was 2 µg/mL (≈ 4.77 µM), the MIC (A. baumannii ATCC 17978) was 4 µg/mL (≈ 9.53 µM) and the MIC [7] was 2 µg/mL (≈ 4.77 µM). For the same compound, the MIC [8] was 2 µg/mL (≈ 4.77 µM), the MIC (M. phlei ATCC 11758) was 4 µg/mL (≈ 9.53 µM) and the MIC [9] was 2 µg/mL (≈ 4.77 µM). It also gave an MIC (M. fortuitum ATCC 110) of 2 µg/mL (≈ 4.77 µM), an IC50 [10] of 13 µM and an MIC (H. influenzae ATCC 49247) of 2 µg/mL (≈ 4.77 µM). It also gave an MIC (H. pylori ATCC 43504) of 8 µg/mL (≈ 19.1 µM) and an MIC (E. faecium ATCC 700221) of 2 µg/mL (≈ 4.77 µM).
Compound `Cl.Cl.NCCCNCCC(c1cn(C2CCCCC2)c2ccccc12)C1CCCCC1` (stereo not shown) [Compound 371, N1-(3-cyclohexyl-3-(1-cyclohexyl-1H-indol-3-yl)propyl)propane-1,3-diamine hydrochloride] has an MIC ([1]; ATCC29213, Table XIII) of 4 µg/mL, an MIC [1, 11] of 4 µg/mL and an MIC [2] of 2 µg/mL. For the same compound, the MIC [3] was 8 µg/mL, the MIC [4] was 8 µg/mL and the MIC (S. pneumoniae ATCC 49619) was 8 µg/mL. It also gave an MIC [5, 12] of 2 µg/mL, an MIC [5, 13] of 2 µg/mL and an MIC (K. pneumoniae ATCC 43816) of 4 µg/mL. The MIC [6] was 4 µg/mL, the MIC (A. baumannii ATCC 17978) was 4 µg/mL and the MIC [7] was 2 µg/mL. It also gave an MIC [8] of 4 µg/mL, an MIC (M. phlei ATCC 11758) of 4 µg/mL and an MIC [9] of 4 µg/mL. For the same compound, the MIC (M. fortuitum ATCC 110) was 4 µg/mL, the IC50 ([10]; hydrochloride) was 9 µM and the MIC (H. influenzae ATCC 49247) was 4 µg/mL. The MIC (H. pylori ATCC 43504) was 16 µg/mL and the MIC (E. faecium ATCC 700221) was 2 µg/mL.
